Source: publication PMC9741287, “Cytotoxic and Luminescent Properties of Novel Organotin Complexes with Chelating Antioxidant Ligand” (Molecules, 2022)
Values joined by “and” are separate entries in the source; they are usually repeats but may differ in a detail not shown here. Equal values may be shown once. Read-outs that look alike come from different tables or passages of the source.

Key:
[1] = DPPH-test (radical scavenging); details: for Quantity of Reduced DPPH after 20 h: DPPH 0.2 mM + test compound 0.2 mM in EtOH, equal volumes, 517 nm
Source text: 2,2-Diphenyl-1-picrylhydrazyl (DPPH)—is a stable N-centered chromophore radical with absorption peak λmax = 517 nm, while its reduced form is pale yellow. Its reduction can be monitored spectrophotometrically and is a well-known and convenient way of evaluating radical scavenging activity. […] This may be caused by the participation not of only the sterically hindered phenolic group in the process of radical scavenging, but salicylic phenolic group and probably hydrazide fragment as well. The abovementioned structural moieties participate in the coordination of tin atoms, and therefore are excluded from the mechanism of antioxidant action of complexes. […] The introduction of tin is known to lower the radical scavenging capacity of corresponding ligands and is estimated as referred previously. The only exception is complex 7, bearing two 2,6-di-tert-butylphenols pendants attached directly to the tin.
The activity of synthesized compounds as radical scavengers was estimated spectrophotometrically at λmax = 517 nm using stable radical 2,2-diphenyl-1-picrylhydrazyl (Sigma-Aldrich) according to the known procedure. The reaction mixture contained DPPH (0.75 mL, 0.2 mM) and a solution of the test compound in EtOH (0.75 mL, 0.2 mM), and was put in 1 cm glass cuvettes. The measurements were carried out for 20 h and the results were calculated using Microsoft Excel 2010. Antioxidant activity was expressed as the percentage of reduced DPPH according to the Equation (1):I (%) = ((A0 − A1)/A0) × 100(1) where A0 is the absorbance of the control 0.1 mM DPPH in EtOH, ε DPPH = 1.15·× 10^4, and A1 is the absorbance of the reaction mixture in the presence of the test compound.

[2] = tested on: HCT116 (human colorectal carcinoma); test: MTT-test HCT116; type: cell-based
Procedure: (§1) Since the investigated compounds are designed as theranostic and cytostatic agents, their toxic impact was evaluated as a standard MTT-test. Cytotoxicity was studied on four cell lines, i.e.,—HCT116 (human colorectal carcinoma), MCF-7 (human breast cancer), A549 (human lung adenocarcinoma), and WI-38 (human fetal lung fibroblast). Obtained results appear to be unorthodox: as it is known, the introduction of an organotin moiety tends to noticeably increase compounds’ toxicity and more lipophilic ones do it better, but in the presented data pattern turns vice versa (Table 3).
(§2) HCT-116 (colon carcinoma), MCF-7 (breast adenocarcinoma), A-549 (lung adenocarcinoma) cell lines, and WI-38 (cell line composed of fibroblasts) were derived from The European Collection of Authenticated Cell Cultures (ECACC, Salisbury, UK), cultured in DMEM medium (Gibco™, Dublin, Ireland) supplemented with 10% fetal bovine serum (Gibco™, Brasilia, Brazil). The cells were cultured in an incubator at 37 °C in a humidified 5% CO2 atmosphere and subcultured two times a week.
(§3) The toxicity of compounds was studied on cultured cell lines according to standard MTT protocol.

[3] = tested on: MCF-7 (human breast cancer); test: MTT-test MCF-7; type: cell-based
Procedure: as §1, §2, §3

[4] = Luminescence / photophysical properties; type: physicochemical; details: for Quantum Yield, DMSO Solution 10 µM / Quantum Yield, DMSO Solution 100 µM / Quantum Yield, DMSO Solution 1000 µM / Quantum Yield, Powders: λex = 365 nm; for ε (λmax): at absorption λmax; for Luminosity (λmax): at λmax; for Quantum Yield, Powders: solid (compound 4 is an oil)
Procedure: Their quantum yields reached 20%, which together with their high absorption (Table 4) makes them highly emissive even in powders.
The registration of luminescence spectra of powders and solutions in the visible range as well as the measurement of quantum yields were carried out with Horiba FluoroMax Plus, with xenon lamp as excitation source at room temperature; excitation was performed through a ligand (λex = 365 nm). The quantum yield was measured by the absolute method in the integrating sphere.

[5] = Hydrolysis stability at different pH (UV-vis); type: physicochemical; details: phosphate buffer, pH = 5 and pH = 7; absorbance 250–500 nm
Procedure: Investigations of potential drug pharmacokinetics are an important part of the evaluation of its potential efficacy and applicability. On the base level, this can be studied in vitro as a hydrolysis stability assay at different pH levels. […] The stability of compounds was estimated as an optical density drop at λ = 250–500 nm at pH = 5 and pH = 7 (Figure 3 and Figure 4).
The stability of synthesized compounds was estimated spectrophotometrically. To 1.5 mL of either phosphate buffer with pH = 5.0 or phosphate buffer with pH = 7.4, 300 µL of 2 mM test solution in MeOH was added. Then adsorption spectra at λ = 250–500 nm were recorded for 20 h. Graphs were built using OriginPro 2019b.

[6] = MTT test with HepG2 cells, 48 h; type: cell-based; details: human, HepG2 cells; HepG2, 48 h incubation, MTT
Procedure: (§4) Cytotoxic properties of 1 are unusual, so an additional cytotoxicity assay with HepG2 cells was carried out and CC50 values were estimated (Figure 5).
(§5) The fact that ligand 1 itself has cytotoxic properties can be interpreted as the existence of a pharmacological target, specific to 1. The detection of potential targets for ligand 1 involves research on cell cycle influence and many other assays, and will be carried out in future studies.
(§6) Figure 5 An effect of compound 1 at concentrations of 0.001–100 µM on the metabolic activity (viability) of HepG2 cells during 48 h incubation in the MTT test.

[7] = tested on: HepG2 cells; test: MTT test with HepG2 cells, 48 h; type: cell-based; details: HepG2, 48 h
Procedure: as §4, §5, §6

Compound	Quantity of Reduced DPPH after 20 h [1]	IC50 [2]	IC50 [3]	λmax (absorption) [4]	Quantum Yield, DMSO Solution 10 µM [4]	Quantum Yield, DMSO Solution 100 µM [4]	Quantum Yield, DMSO Solution 1000 µM [4]	ε (λmax) [4]	Luminosity (λmax) [4]	Quantum Yield, Powders [4]	Luminosity (λ = 365 nm) [4]	ε (λ = 365 nm) [4]	EC50 [1]	Time after which decomposition (hydrolysis) is seen [5]	IC50 ([2]; Homo sapiens, HCT-116)	IC50 ([3]; Homo sapiens, MCF7)	CC50 at 48 h [6]	Suppression of vital activity relative to the control ([7]; 3 µM)	Minimal concentration that significantly suppresses vital activity ([7]; MTT)	melting point
CCC[CH2][Sn]1([CH2]CCC)[O]C(c2cc(C(C)(C)C)c(O)c(C(C)(C)C)c2)=NN=Cc2ccccc2[O]1 [Compound 4, Bu2SnL]	50.5 ± 2.8%	10 ± 2.3 µM	1.01 ± 0.4 µM	409 nm	41 ± 3%	67% and 66 ± 2%	36 ± 3%	5950 M⁻¹ cm⁻¹	398,650, (409) M^−1·cm^−1	4 ± 3%	146,127 M^−1·cm^−1	2181 M⁻¹ cm⁻¹	–	–	–	–	–	–	–	–
CC(C)(C)c1cc(C2=NN=Cc3ccccc3[O][Sn]([c]3ccccc3)([c]3ccccc3)[O]2)cc(C(C)(C)C)c1O [Compound 6, Ph2SnL]	47.4 ± 2.7%	20 ± 11 µM	26.3 ± 3.5 µM	393 nm	25 ± 2%	67 ± 2%	26 ± 2%	13,450 M^−1·cm^−1	–	6 ± 2%	333,370 M^−1·cm^−1	9010 M⁻¹ cm⁻¹	–	–	–	–	–	–	–	–
CC(C)(C)c1cc(C2=NN=Cc3ccccc3[O][Sn]([CH3])([CH3])[O]2)cc(C(C)(C)C)c1O [Compound 2, Me2SnL]	35.2 ± 1.9%	2.4 ± 0.8 µM	5.2 ± 1 µM	403 nm	17 ± 3%	56 ± 1%	39% and 39 ± 3%	13,070 M^−1·cm^−1	771,130, (403) M^−1·cm^−1	14 ± 2%	508,403 M^−1·cm^−1	8617 M⁻¹ cm⁻¹	–	–	–	–	–	–	–	–
CC(C)(C)c1cc(C2=NN=Cc3ccccc3[O][Sn]([c]3cc(C(C)(C)C)c(O)c(C(C)(C)C)c3)([c]3cc(C(C)(C)C)c(O)c(C(C)(C)C)c3)[O]2)cc(C(C)(C)C)c1O [Compound 7, (2,6-Di-tert-butylphenol)2SnL]	–	20.5 ± 6.4 µM	32.7 ± 9.5 µM	402 nm	21 ± 2%	42 ± 1%	32 ± 2%	13,270 M^−1·cm^−1	557,340, (402) M^−1·cm^−1	20% and 20 ± 2%	294,084 M^−1·cm^−1	7002 M⁻¹ cm⁻¹	12.8 µM	–	–	–	–	–	–	–
C[CH2][Sn]1([CH2]C)[O]C(c2cc(C(C)(C)C)c(O)c(C(C)(C)C)c2)=NN=Cc2ccccc2[O]1 [Compound 3, Et2SnL]	41.3 ± 2.1%	1.4 ± 0.5 µM	3.7 ± 0.5 µM	410 nm	17 ± 2%	45 ± 1%	30 ± 2%	14,020 M^−1·cm^−1	658,940, (410) M^−1·cm^−1	14 ± 2%	210,983 M^−1·cm^−1	4489 M⁻¹ cm⁻¹	–	–	–	–	–	–	–	–
CC(C)(C)c1cc(C2=NN=Cc3ccccc3[O][Sn]([C](C)(C)C)([C](C)(C)C)[O]2)cc(C(C)(C)C)c1O [Compound 5, Bu^t2SnL]	26.5 ± 1.7%	34.3 ± 14 µM	50.4 ± 12.6 µM	412 nm	20 ± 2%	37 ± 1%	29 ± 2%	9920 M⁻¹ cm⁻¹	–	8 ± 1%	206,360 M^−1·cm^−1	3080 M⁻¹ cm⁻¹	–	–	–	–	–	–	–	–
CC(C)(C)c1cc(C(=O)N/N=C/c2ccccc2O)cc(C(C)(C)C)c1O [Compound 1, Di-tert-butyl-4-hydroxy-N′-(2-hydroxybenzylidene)-benzohydrazine]	–	–	–	–	–	–	–	–	–	–	–	–	163 µM	approximately 1 h	1.7 ± 0.4 µM	4.7 ± 0.8 µM	12.4 ± 2 µM	25.8 ± 4.0%	3 µM	265 to 269 °C
